# Data reported in patent publication US20050037382A1, “Methods and compositions for treating and preventing autoimmune disorders” (priority 2003, published 2005).
# Tested on: chronic colitis induced by DSS treatment
# Test: Apyrase administration in DSS-induced chronic colitis (weight)
# Assay type: in vivo, mice
# Details: apyrase 0.4 units/g weight at week five
# From the text: Adult mice (55-75 day old) sex-matched hemizygous CD39+/−, CD39−/−, and CD39+/+ littermates were given 3-5% (w/v) DSS in drinking water for seven days to induce a pathological state reminiscent of acute ulcerative colitis. Mice were fasted on day 7, and sacrificed the next day. Tissue was collected for Haematoxylin and Eosin staining, immunohistochemistry staining (for CD39, CD39L1, P-selectin, Fibrin, and P2Y1, for example), Western blot analysis, and NTPDase activity. To induce chronic ulcerative colitis, mice were treated with 3% DSS for seven days followed by a one week rest period. DSS treatment was resumed for seven days followed by another rest period of seven days. Treatment was resumed in the fifth week for seven days. At least six age- and sex-matched hemizygous CD39+/−, CD39−/−, and CD39+/+ mice were studied at the end of seven days of DSS treatment (acute colitis) or 5 week DSS treatment (chronic colitis). Mice were housed in standard cages and were allowed to drink and feed ad libitum. Animals were weighed daily. To test the hypothesis that the administration of an NTPDase can delay the damage caused by colitis, CD39+/+ and CD39+/− mice, following the induction of chronic colitis by DSS treatment, were administered with apyrase, an NTPDase (see FIGS. 4A and 4B). Apyrase was administered at 0.4 units/g weight at week five following the initial treatment with DSS.
substance,measurement,setting,value
apyrase,weight following apyrase treatment,CD39+/+ mice,significant gain in weight
same,weight following apyrase treatment,"CD39−/+ (hemizygous) mice, compared with effect in CD39+/+ mice",further enhanced
